Results taken from patent US20240285615A1, “MEDICAMENTS COMPRISING GLYCOSIDASE INHIBITORS” (priority 2021, published 2024).
Read-outs that look alike come from different tables or passages of the source.

How the values were obtained:
[1] = Phase 1 Part 2: multiple BID doses for 12 days, plasma pharmacokinetics; type: in vivo, human; settings: for AR (accumulation ratio, AUC0-tau at Day 12/AUC0-tau at Day 1) / concentration at 12 day / Cmax / Tmax / half-life / AUC: plasma; for concentration at 12 day / Cmax / Tmax / half-life / AUC: both sexes, human; for concentration at 12 day: in vivo, read-out: Cmin; for Cmax / Tmax / half-life / AUC: oral; for Tmax: median (min, max); for AUC: read-out: AUC0-tau
Experimental: The study was a single-centre, randomized, placebo-controlled single- and multiple ascending dose study in healthy male and female (no childbearing potential) volunteers aged 18-80 years. Study objectives were safety, tolerability, food effect and pharmacokinetics. Following identification of safe and tolerable single doses in healthy male subjects aged 18-55 years, separate cohorts were dosed to assess food effect. Furthermore, multiple-dose safety, tolerability, pharmacokinetics, CSF drug levels and pharmacodynamics were assessed in elderly (age 55-80 years) male or healthy non-child-bearing potential female volunteers.
Day 1: Twice a day (BID) dosing. Day 2: No dosing. Day 3-11: 9 days of BID dosing. Day 12: one dose in the morning.

[2] = system: transgenic mice (Line 61) overexpressing wildtype human alpha-synuclein; test: In vivo treatment efficacy on Parkinson disease (PD) model (Line 61); settings: Line 61 mice, daily oral gavage for 24 weeks
Source text: The transgenic mice (Line 61) which overexpresses wildtype human alpha-synuclein protein (hAsyn) under the regulatory control of the murine Thy-1 promoter is a widely used Parkinson disease (PD) animal model. […] In addition, motor deficits such as lack of coordination, diminution of strength, and unbalance are also observed from 2 to 4 months of age (Fleming et al. 2004, J Neurosci 24 (42): 9434-40). Treatment effect of compound of formula (I) is based on the assessment of the behaviour (motoric performance), as well as the quantification of aggregated hAsyn and pser129-Asyn deposits by histology and by the biochemical determination of aggregated hAsyn present in the brain “insoluble fraction” of treated animals.
For this, transgenic Line 61 mice (4 weeks of age) and age/sex-matched non-transgenic littermates are first tested in the Irwin testing battery test, rotarod, wire suspension, beam walk and pasta gnawing test at baseline. […] Right hemibrains are embedded in OCT medium and 10 μm cryosections are collected to quantify the level of hAsyn and pser129-Asyn deposits by immunohistochemistry in the hippocampus and in the cortex of treated animals. […]

[3] = system: patients with probable PSP Richardson's syndrome; test: Phase 2 clinical trial in progressive supranuclear palsy (Example 6); type: in vivo, human; settings: 300 mg or 150 mg TID PO, clinical study protocol
Source text: CLINICAL STUDY PROTOCOL: A Randomized, Double-blind, Placebo-Controlled Study to Evaluate the Efficacy and Safety of compound of formula (I) for the Treatment of Progressive Supranuclear Palsy
PRIMARY OBJECTIVE: To evaluate the safety and tolerability of two different doses of compound (I) compared with placebo for the treatment of PSP
STUDY DESIGN: This is a randomized, multi-centre, double-blind, placebo-controlled trial to study the safety and tolerability of compound (I) in patients with probable PSP Richardson's syndrome. Approximately 40 patients (40 to 85 years of age, inclusive) are randomized in a 2:1:1 ratio to 300 mg or 150 mg or placebo TID PO with meals.
For all subjects, a screening visit is performed up to 6 weeks prior to dosing to determine eligibility. Eligible patients take investigational product (compound (I) or placebo) orally daily for about 12 weeks. Safety and tolerability data are collected at required visits to the study site. In addition, an “at home visit” for safety assessment and blood draw is organized. An open-label extension period of 52 weeks takes place upon completion of the initial double-blind treatment period. […]
PRIMARY SAFETY ENDPOINT: Frequency of treatment-emergent adverse events recorded in the three treatment arms at Week 12.

[4] = 100 mg BID, Day 12, elderly subjects, arithmetic mean
[5] = 250 mg BID, Day 12, elderly subjects, arithmetic mean
[6] = 500 mg BID, Day 12, elderly subjects, arithmetic mean

CC(=O)Nc1nnc(N2CCN([C@@H](C)c3ccc4c(c3)OCO4)CC2)s1 [Compound (I)]
AR (accumulation ratio, AUC0-tau at Day 12/AUC0-tau at Day 1) [1, 4]: 1.35 | AR (accumulation ratio, AUC0-tau at Day 12/AUC0-tau at Day 1) [1, 5]: 1.36 | AR (accumulation ratio, AUC0-tau at Day 12/AUC0-tau at Day 1) [1, 6]: 1.25 | dose proportionality of Cmax, AUC0-tau and AUC12-24 ([1]; Day 1, BID 100 mg to BID 500 mg): Dose proportionality was observed | dose proportionality of Cmax, AUC0-tau and AUC0-48 ([1]; Day 12, BID 100 mg to BID 500 mg): Dose proportionality was observed | concentration at 12 day [1, 4]: 84 ng/mL | concentration at 12 day [1, 5]: 308 ng/mL | concentration at 12 day [1, 6]: 743 ng/mL | Cmax ([1]; 100 mg, 100 mg BID, Day 1 (first dose), elderly subjects, arithmetic mean): 1450 ng/mL | Tmax ([1]; 100 mg, 100 mg BID, Day 1 (first dose), elderly subjects): 0.75 h | half-life ([1]; 100 mg, 100 mg BID, Day 1, elderly subjects, arithmetic mean, read-out: t1/2 (converted)): 234 min | AUC ([1]; 100 mg, 100 mg BID, Day 1, tau 12 h, elderly subjects, arithmetic mean): 4120 ng·h/mL | Cmax ([1]; 100 mg, 100 mg BID, Day 12, elderly subjects, arithmetic mean): 1340 ng/mL | half-life ([1]; 100 mg, 100 mg BID, Day 12, elderly subjects, arithmetic mean, read-out: t1/2 (converted)): 470 min | Tmax ([1]; 100 mg, 100 mg BID, Day 12, elderly subjects): 2.25 h | AUC ([1]; 100 mg, 100 mg BID, Day 12, tau 12 h, elderly subjects, arithmetic mean): 5440 ng·h/mL | Cmax ([1]; 250 mg, 250 mg BID, Day 1 (first dose), elderly subjects, arithmetic mean): 3630 ng/mL | Tmax ([1]; 250 mg, 250 mg BID, Day 1 (first dose), elderly subjects): 0.5 h | half-life ([1]; 250 mg, 250 mg BID, Day 1, elderly subjects, arithmetic mean, read-out: t1/2 (converted)): 284 min | AUC ([1]; 250 mg, 250 mg BID, Day 1, tau 12 h, elderly subjects, arithmetic mean): 10700 ng·h/mL | Cmax ([1]; 250 mg, 250 mg BID, Day 12, elderly subjects, arithmetic mean): 3740 ng/mL | half-life ([1]; 250 mg, 250 mg BID, Day 12, elderly subjects, arithmetic mean, read-out: t1/2 (converted)): 612 min | Tmax ([1]; 250 mg, 250 mg BID, Day 12, elderly subjects): 1 h | AUC ([1]; 250 mg, 250 mg BID, Day 12, tau 12 h, elderly subjects, arithmetic mean): 14300 ng·h/mL | Cmax ([1]; 500 mg, 500 mg BID, Day 1 (first dose), elderly subjects, arithmetic mean): 6440 ng/mL | Tmax ([1]; 500 mg, 500 mg BID, Day 1 (first dose), elderly subjects): 1.02 h | half-life ([1]; 500 mg, 500 mg BID, Day 1, elderly subjects, N=1, read-out: t1/2 (converted)): 371 min | AUC ([1]; 500 mg, 500 mg BID, Day 1, tau 12 h, elderly subjects, arithmetic mean): 24300 ng·h/mL | Cmax ([1]; 500 mg, 500 mg BID, Day 12, elderly subjects, arithmetic mean): 6670 ng/mL | half-life ([1]; 500 mg, 500 mg BID, Day 12, elderly subjects, arithmetic mean, read-out: t1/2 (converted)): 642 min | Tmax ([1]; 500 mg, 500 mg BID, Day 12, elderly subjects): 1.5 h | AUC ([1]; 500 mg, 500 mg BID, Day 12, tau 12 h, elderly subjects, arithmetic mean): 30200 ng·h/mL | half-life ([1]; 100 to 500 mg BID, single dose and multiple dose conditions, read-out: terminal half-life (t½), range of means): 234 to 642 min | behavioural tests (Irwin battery, rotarod, wire suspension, beam walk, pasta gnawing) [2]: functional benefit (motor improvement) | intraneuronal aggregated pser129-Asyn deposits by histology [2]: reduction of the number of intraneuronal aggregated pser129-Asyn deposits | safety and tolerability of the preferred dosage regimen [3]: especially safe and well tolerated
